Where a name gives a salt, the structure may show the parent alone.
Columns and labels:
[1] = test system: IL-23; assay: IL-23 production by DC, ELISA of culture supernatants; assay type: cell-based, mouse
Protocol: (§1) IL-4, IL-10, IL-12 and interferon-γ were determined using the ELISA (enzyme linked immunosorbent assay) set or with the use of individual components from BD BioSciences. IL-23 in the supernatant was determined using the ELISA set (eBioscience). For intracytoplasmic cytokine analyses, the T cells were restimulated with PMA/ionomycin or with APC and peptide in the presence of brefeldin A, then fixed and permeabilized and stained. For the surface staining, anti-CD4 or KJ1-26 antibodies were used; the cytokine antibodies (PE labeled) were all obtained from BD Pharmingen.
(§2) As antigen presenting cells (APC), T cell depleted spleen cells from syngenic mice were used. Dendritic cells (DC) which were obtained from bone marrow (BMDC) and cultured with GM-CSF were used for the relevant experiments on day 7 of culturing. For the experiment, in each case an equal number of APC were cultured either with the medium alone, with L-BSO (C8H18N2O3S, 0.5 mM), dimethyl sulfoxide DMSO(C2H6OS), dimethyl fumarate DMF (C6H8O4, dissolved in DMSO, 70 μM), or calcium monomethyl fumarate (MMF; CaC10H10O8, 200 μM). All substances except for MMF (Fumapharm) were purchased from Sigma-Aldrich. At the respective stated times (see below) the cells were either analyzed directly for their GSH content, used for T cell stimulation or stimulated for […] with Escherichia coli lipopolysaccharides 055.B5 (Sigma-Aldrich) or CpG-DNA 1668 (MWG Biotech) and IL-4 (Stratmann). In order to raise the GSH level again, 1 mM GSH-OEt (C12H21N3O6S; Sigma-Aldrich) or 1 mM NAC (Sigma-Aldrich) was added. The GSH reservoirs in mice were depleted by feeding with DMF or MMF, and in man by treatment with Fumaderm®.

[2] = test system: IL-10; assay: IL-10 production by DC, ELISA of culture supernatants; assay type: cell-based, mouse
Protocol: as §1
as §2, with “All substances except for MMF (Fumapharm) were purchased from Sigma-Aldrich.” left out, “In order to raise the GSH level again, 1 mM GSH-OEt (C12H21N3O6S; Sigma-Aldrich) or 1 mM NAC (Sigma-Aldrich) was added. The GSH reservoirs in mice were depleted by feeding with DMF or MMF, and in man by treatment with Fumaderm®.” left out

[3] = test system: ovalbumin-specific CD4+ T cells; assay: Priming of ovalbumin-specific CD4+ T cells with treated DC, IFN-γ and IL-4 by ELISA; assay type: cell-based, mouse; details: restimulated with fresh APC and antigen
Protocol: as §1
The CD4+ T cells of DO11.10 mice were sorted using MACS magnet beads (Miltenyi Biotech). By culturing of DC on day seven with either medium and DMSO or DMF for 2 hours, DC^GSHhigh or DC^GSHlow could be generated. After four-hour stimulation with LPS or CpG-DNA/IL-4, the DC^GSHhigh or DC^GSHlow were used for the stimulation of DO11.10 T cells with 10 μg/ml ovalbumin peptide 323-339 for two days. The T cells were expanded with 50 U/ml IL-2 (Chiron Therapeutics). The cells were washed on day 10 and restimulated with fresh APC. The analysis was performed with the supernatants after 24 hrs. CD4^+ T cells were obtained from SJL mice immunized with PLP peptide using MACS magnet beads and stimulated with irradiated APC and PLP peptide 139-151 in the presence of L-BSO, DMF or only in medium as control. […]

[4] = test system: PLP-specific T cells; assay: In vitro stimulation of PLP-specific T cells under GSH deprivation; assay type: cell-based, mouse
Protocol: The CD4+ T cells of DO11.10 mice were sorted using MACS magnet beads (Miltenyi Biotech). By culturing of DC on day seven with either medium and DMSO or DMF for 2 hours, DC^GSHhigh or DC^GSHlow could be generated. After four-hour stimulation with LPS or CpG-DNA/IL-4, the DC^GSHhigh or DC^GSHlow were used for the stimulation of DO11.10 T cells with 10 μg/ml ovalbumin peptide 323-339 for two days. The T cells were expanded with 50 U/ml IL-2 (Chiron Therapeutics). The cells were washed on day 10 and restimulated with fresh APC. The analysis was performed with the supernatants after 24 hrs. […]
(§3) Spleen and lymph node CD4^+ T cells were stimulated with PLP (proteolipid protein) peptide 139-151 (10 μg/ml) and stimulated for four days with irradiated SJL-APC in the presence or absence of L-BSO (0.5 mM, Sigma), expanded for three to four days and then restimulated for cytokine production (proteolipid protein is the commonest myelin protein in the central nervous system and plays an important part as an autoantigen in the onset of multiple sclerosis). […] For the cytokine analysis of PLP-specific T cells, the draining lymph nodes of the SJL mice were removed 6 days after the immunization and CD4^+ T cells antigen-specifically analyzed (ELISPOT). […] After washing with H2O, the number of spots was determined in the ELISPOT reader (Biosys).

[5] = test system: PLP-specific CD4+ T cells; assay: ELISPOT cytokine analysis of PLP-specific CD4+ T cells from draining lymph nodes of fed mice; assay type: in vivo, SJL mice; details: 6 days after immunization, ELISPOT IL-4 / IFN-γ
Protocol: as §3, with “sclerosis). Next, 10^7 sham (control) or L-BSO treated T cells were injected intraperitoneally into naive SJL mice and the EAE developing as a result was observed.” for “sclerosis).”
In order further to study whether GSH deprivation can also influence the differentiation and pathogenicity of autoreactive T cells in vivo, mice were fed with DMF or L-BSO in the drinking water, and the control group only with drinking water. […] 6 days after immunization, the draining lymph nodes of the mice were analyzed. For this, the CD4^+ T cells were isolated and the cytokine production of PLP-specific T cells measured using ELISPOT after in vitro stimulation.

[6] = test system: human DC; assay: GSH determination in human DC in vitro; assay type: cell-based
Protocol: Cellular GSH and GSSG were determined in micro-titer plate assays using colorimetric methods. The cellular GHS content is determined as a percentage of the GSH levels in freshly prepared controls or as pmol 10^−6 cells. GSSG was not detectable.
DC from human bone marrow (BMDC) (CD14^+) were isolated using MACS (Miltenyi Biotech) and incubated for seven days with IL-4 (500 U/ml, R & D Systems) and GM-CSF (Granulocyte-Monocyte Colony Stimulating Factor) (1000 U/ml (Immunonex)). GSX determination as under 1.3.

| Compound | lowering of LPS-induced IL-23 production in DC cultivated from bone marrow ([1]; LPS-induced) | IL-23 production by DC ([1]; after stimulation with LPS, compared to controls (DMSO)) | IL-10 production in DC [2] | IFN-γ production of TH cells induced by treated DC [3] | IL-4 production of TH cells induced by treated DC [3] | differentiation of PLP-specific T cells to Th1 and Th-17 [4] | differentiation of PLP-specific T cells towards Th2 [4] | cytokine pattern of PLP-specific CD4+ T cells [5] | GSH in human DC [6] |
| --- | --- | --- | --- | --- | --- | --- | --- | --- | --- |
| COC(=O)/C=C/C(=O)OC [DMF, dimethyl fumarate] | up to 10,000 fold | markedly less | rise in IL-10 production | little IFN-γ | much IL-4 | inhibits the differentiation of Th1 and Th-17 | promotes the differentiation towards Th2 | TH2-like pattern | depletes GSH |
| CCCCS(=N)(=O)CCC(N)C(=O)O [L-BSO, L-buthionine sulfoximine] |  |  |  |  |  |  |  | TH2-like pattern |  |

Source: patent US8618178B2, “Method and substances for treating T-cell mediated autoimmune diseases” (Eberhard-Karls-Universitaet Tuebingen Universitaetsklinikum, priority 2006, dated 2013)
